Reference: patent US7250435B2, “Acylsemicarbazides as cyclin dependent kinase inhibitors useful as anti-cancer and anti-proliferative agents” (Bristol-Myers Squibb Pharma Company, priority 1999, dated 2007)

| SMILES | melting point [°C] |
| --- | --- |
| CC(=O)Nc1cccc2c1C(=O)c1c-2n[nH]c1C(C)(C)C [Example LXXXVIII, 3-(t-butyl)-5-(acetamido)indeno[1,2-c]pyrazol-4-one] | > 250 |
| CC(=O)Nc1cccc2c1C(=O)c1c-2n[nH]c1-c1cccs1 [Example LXXXIX, 3-(2-thienyl)-5-(acetamido)indeno[1,2-c]pyrazol-4-one] | 269 |
| CN1CCN(CC(=O)Nc2cccc3c2C(=O)c2c-3n[nH]c2-c2ccc(N3CCOCC3)cc2)CC1 [Example LXXXII, 3-(4-(4-morpholinyl)phenyl)-5-((4-methyl-1-piperazinyl)acetamido)indeno[1,2-c]pyrazol-4-one] | 258 |
| CC(=O)Nc1cccc2c1C(=O)c1c-2n[nH]c1C(C)C [Example LXXXVI, 3-(i-propyl)-5-(acetamido)indeno[1,2-c]pyrazol-4-one] | > 250 |

Results, then the compound that gave them:

| melting point [°C] | SMILES |
| --- | --- |
| 257 | COc1ccc(-c2[nH]nc3c2C(=O)c2c(NC(=O)NNC(=O)c4ccccc4N)cccc2-3)cc1 [Example CLXV, 3-(4-methoxyphenyl)-5-(2-(2-aminobenzoyl)hydrazinecarboxamido)indeno[1,2-c]pyrazol-4-one] |
| > 300 | COc1ccc(-c2[nH]nc3c2C(=O)c2c(NC(=O)NN(C)C)cccc2-3)cc1 [Example LXIV, 3-(4-methoxyphenyl)-5-(dimethylaminocarbamoyl)aminoindeno[1,2-c]pyrazol-4-one] |
| > 300 | COc1ccc(-c2[nH]nc3c2C(=O)c2c(NC(=O)CCNc4ccncc4)cccc2-3)cc1 [Example XXXV, 3-(4-methoxyphenyl)-5-(4-pyridinylaminomethylacetamido)indeno[1,2-c]pyrazol-4-one] |
| > 300 | COc1ccc(-c2[nH]nc3c2C(=O)c2c(NC(=O)NNC(=O)c4ccc(O)c(O)c4)cccc2-3)cc1 [Example CLXI, 3-(4-methoxyphenyl)-5-(2-(3,4-dihydroxybenzoyl)hydrazinecarboxamido)indeno[1,2-c]pyrazol-4-one] |
| > 300 | COc1ccc(-c2[nH]nc3c2C(=O)c2c(NC(=O)NCc4ccc(N)cc4)cccc2-3)cc1 [Example XLIV, 3-(4-methoxyphenyl)-5-(4-aminobenzylcarbamoyl)aminoindeno[1,2-c]pyrazol-4-one] |
